Patent US11548875B2, “Inhibitor compounds for male contraception” (University of Washington, priority 2018, dated 2023)

Columns and labels:
[1] = biological target: T1, ALDH1A2 (Homo sapiens, UniProt O94788); test: Cell-based enzyme assay, retinoic acid production in ALDH1A2/H1299 cells; conditions: cell-based
T1 sequence (O94788 1-518): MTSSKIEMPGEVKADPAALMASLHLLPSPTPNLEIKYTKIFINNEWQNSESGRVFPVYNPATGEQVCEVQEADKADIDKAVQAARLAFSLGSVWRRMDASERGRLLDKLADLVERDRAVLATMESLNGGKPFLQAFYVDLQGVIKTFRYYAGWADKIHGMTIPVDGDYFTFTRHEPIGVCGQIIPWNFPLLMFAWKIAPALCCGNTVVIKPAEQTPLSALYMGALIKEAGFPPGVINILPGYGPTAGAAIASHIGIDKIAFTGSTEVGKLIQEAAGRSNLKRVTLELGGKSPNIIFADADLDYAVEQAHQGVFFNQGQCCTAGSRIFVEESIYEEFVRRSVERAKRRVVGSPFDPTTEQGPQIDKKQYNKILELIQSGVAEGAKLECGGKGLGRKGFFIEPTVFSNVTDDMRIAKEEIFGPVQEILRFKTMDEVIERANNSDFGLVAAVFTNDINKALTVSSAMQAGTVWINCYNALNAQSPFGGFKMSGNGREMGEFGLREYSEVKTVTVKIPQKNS
Method: (§1) ALDH1A1 cDNA clone was purchased transfection-ready, and ALDH1A2 full-length cDNA was subcloned into pcDNA3, a mammalian expression vector. ALDH1A1 and ALDH1A2 were transfected into H1299 cells (CRL5803, ATCC) using Lipofectamine 3000 (Invitrogen) following the manufacturer's instructions. Stably transfected cells were selected with G418 (1.2 mg/ml) and referred to as ALDH1A1/H1299 and ALDH1A2/H1299. For the cell-based enzyme assays,
(§2) H1299 cells were routinely grown in RPMI-1640 (ATCC) supplemented with 10% fetal bovine serum (Atlanta Biologicals) in a 37 C, 5% CO2, moisture-saturated atmosphere. H1299, ALDH1A1/H1299 and ALDH1A2/H1299 cells were seeded into 12-well plates (1×10^5 cells/well) and grown for 2 days to confluence. Confluent cells were treated for 20 hours in the above media excluding serum with 2 μM all-trans-retinal, and varying concentrations of inhibitors. Serum-free media was used for the treatment period to avoid retinoic acid in serum. Retinoic acid concentrations were determined from cells and media, and specificity of inhibitors was determined by comparing retinoic acid levels in the presence and absence of the inhibitors in ALDH1A1- vs. ALDH1A2-expressing cells.

[2] = biological target: T2, ALDH1A1 (Homo sapiens, UniProt P00352); test: Cell-based enzyme assay, retinoic acid production in ALDH1A1/H1299 cells; conditions: cell-based
T2 sequence (P00352 1-501): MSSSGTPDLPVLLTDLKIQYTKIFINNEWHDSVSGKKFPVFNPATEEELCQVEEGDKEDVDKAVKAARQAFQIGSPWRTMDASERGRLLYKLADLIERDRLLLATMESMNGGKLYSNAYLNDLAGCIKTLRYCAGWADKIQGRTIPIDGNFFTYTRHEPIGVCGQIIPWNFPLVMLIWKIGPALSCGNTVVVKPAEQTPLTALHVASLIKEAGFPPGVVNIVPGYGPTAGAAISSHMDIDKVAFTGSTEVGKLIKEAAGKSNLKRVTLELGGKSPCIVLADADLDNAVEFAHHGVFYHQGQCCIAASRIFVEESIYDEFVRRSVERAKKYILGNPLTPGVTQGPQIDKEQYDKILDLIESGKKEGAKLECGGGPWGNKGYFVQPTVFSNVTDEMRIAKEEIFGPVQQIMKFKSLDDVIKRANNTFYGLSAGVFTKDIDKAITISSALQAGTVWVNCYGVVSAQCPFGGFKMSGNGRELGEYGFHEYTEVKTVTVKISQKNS
Method: as §1, §2

[3] = biological target: T3, ALDH2 (Homo sapiens, UniProt P05091); test: Purified ALDH2 assay with propanal, NADH fluorescence; format: biochemical; conditions: purified enzyme
T3 construct: histidine-tag (N); made in house; host or cells: bacterial expression (pETite vector, IPTG induction)
T3 sequence (P05091 18-517): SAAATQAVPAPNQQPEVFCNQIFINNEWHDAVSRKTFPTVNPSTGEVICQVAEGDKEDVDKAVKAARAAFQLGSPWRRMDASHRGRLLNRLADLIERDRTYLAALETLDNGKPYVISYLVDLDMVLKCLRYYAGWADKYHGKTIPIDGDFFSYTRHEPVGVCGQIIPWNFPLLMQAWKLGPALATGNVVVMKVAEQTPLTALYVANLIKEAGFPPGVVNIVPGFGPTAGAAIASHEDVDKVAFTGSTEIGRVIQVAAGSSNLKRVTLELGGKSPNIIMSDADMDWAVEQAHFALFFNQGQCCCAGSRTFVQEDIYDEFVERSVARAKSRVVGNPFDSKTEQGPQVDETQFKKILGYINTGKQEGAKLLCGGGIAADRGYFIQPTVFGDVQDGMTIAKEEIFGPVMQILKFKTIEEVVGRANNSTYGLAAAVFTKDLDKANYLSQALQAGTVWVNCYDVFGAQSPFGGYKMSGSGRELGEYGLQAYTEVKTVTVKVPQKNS
Excerpt: ALDHs were cloned into bacterial expression vector for in vitro enzyme assays and into mammalian expression vectors for cell-based enzyme assays. Human ALDH1A1 cDNA and human ALDH2 cDNA were purchased from OriGene (SC321535) and Open Biosystems (MHS4771-99611182), respectively. and human ALDH1A2 cDNA was cloned from human testis RNA using RT-PCR (Population Division of the Department of Economic and Social Affairs of the United Nations Secretariat. World Population prospects: the 2008 revision. Available at http://www.un.org/esa/population/ (Retrieved Sep. 30, 2011)). For bacterial expression, an open reading frame of ALDH1A1 and ALDH2 were subcloned into the pETite vector (Lucigen) with a 5′ histidine-tag and that of ALDH1A2 into a pET28 vector (Novagen) with a 3′ histidine-tag. Correct frame and sequences were verified through DNA sequencing (UW DNA sequencing facility). ALDHs were induced with 1 mM IPTG and purified using His.Bind resin (Novagen, San Diego, Calif.) and stored in a buffer containing 20 mM Hepes (pH 8), 150 mM KCl and 1 mM EDTA as previously described (Fierce, Y., de Morais Vieira, M., Piantedosi, R., Wyss, A., Blaner, W. S., and Paik, J. (2008) In vitro and in vivo characterization of retinoid synthesis from beta-carotene. Archives of biochemistry and biophysics 472, 126-138). […]
For this, 2 μg purified ALDH2, 20 μM propanal and varying concentrations of inhibitors were incubated at room temperature. Enzyme activity was determined by measuring fluorescence of NADH (Ex, 350 nm/Em, 460 nm) using a Victor3 plate reader (PerkinElmer), and initial velocity was calculated from two consecutive readings over 1 minute.

[4] = biological target: T1, ALDH1A2; test: Inhibitor screening using purified enzymes: ALDH1A2 activity, retinoic acid production by HPLC (5 uM initial screen, then IC50); format: biochemical; design: histidine-tag (C); made in house; host or cells: bacterial expression (pET28 vector, IPTG induction); conditions: purified enzyme
Excerpt: ALDHs were cloned into bacterial expression vector for in vitro enzyme assays and into mammalian expression vectors for cell-based enzyme assays. Human ALDH1A1 cDNA and human ALDH2 cDNA were purchased from OriGene (SC321535) and Open Biosystems (MHS4771-99611182), respectively. and human ALDH1A2 cDNA was cloned from human testis RNA using RT-PCR (Population Division of the Department of Economic and Social Affairs of the United Nations Secretariat. World Population prospects: the 2008 revision. Available at http://www.un.org/esa/population/ (Retrieved Sep. 30, 2011)). For bacterial expression, an open reading frame of ALDH1A1 and ALDH2 were subcloned into the pETite vector (Lucigen) with a 5′ histidine-tag and that of ALDH1A2 into a pET28 vector (Novagen) with a 3′ histidine-tag. Correct frame and sequences were verified through DNA sequencing (UW DNA sequencing facility). ALDHs were induced with 1 mM IPTG and purified using His.Bind resin (Novagen, San Diego, Calif.) and stored in a buffer containing 20 mM Hepes (pH 8), 150 mM KCl and 1 mM EDTA as previously described (Fierce, Y., de Morais Vieira, M., Piantedosi, R., Wyss, A., Blaner, W. S., and Paik, J. (2008) In vitro and in vivo characterization of retinoid synthesis from beta-carotene. Archives of biochemistry and biophysics 472, 126-138).
ALDH1A1 and ALDH1A2 activity was determined as previously reported (Beedle M T, Stevison F, Zhong G, Topping T, Hogarth C, Isoherranen N, Griswold M D. Sources of All-Trans Retinal Oxidation Independent of the Aldehyde Dehydrogenase 1A Isozymes Exist in the Postnatal Testis. Biol Reprod. 2018 Sep. 21. doi: 10.1093/biolre/ioy200). Briefly, purified enzymes were incubated in a buffer containing 10 mM HEPES buffer (pH 8.0), 150 mM potassium chloride and 2 mM EDTA with 2 mM NAD. Retinoic acid production was determined using HPLC as previously reported (Amory J K, Muller C H, Shimshoni A J, Isoherranen N, Paik J, Moreb J S, Amory D W, Evanoff R, Goldstein A S, Griswold M D. Suppression of spermatogenesis by bisdichloroacetyldiamines is mediated by inhibition of testicular retinoic acid biosynthesis. Journal of Andrology 2011; 32(1):111-119). Inhibitors were diluted in DMSO and added to the reactions. […] For initial screening of inhibitors for ALDH1A2, 1 μg ALDH1A2, 5 μM all-trans-retinal and 5 μM inhibitors were incubated for 15 min at 37° C. […] For this purpose, 0.5 μg ALDH1A2 and […] were incubated for 5 minutes at 37° C. with varying concentrations of inhibitors. To determine specificity toward ALDH1A2, the IC50 for […]

Row | Molecule | EC50 [1] [µM] | EC50 [2] [µM] | IC50 [3] [µM] | IC50 [4] [µM]
1 | 1-(4-Hydroxymethylphenyl)-3-[4-(methylsulfonyl)phenyl]-N-(3-fluorophenyl)-1H-pyrazole-4-carboxamide [Compound 282] | 0.24 | > 20 | – | –
2 | 2-(Acetyloxy)phenyl 1-(4-fluorophenyl)-3-[4-(methylsulfonyl)phenyl]-1H-pyrazole-4-carboxylate [Compound 293] | 0.07 | > 20 | – | –
3 | CS(=O)(=O)c1ccc(-c2nn(-c3ccccc3)cc2C(=O)Nc2cccnc2)cc1 [Compound 253, 3-[4-(Methylsulfonyl)phenyl]-1-phenyl-N-(pyridin-3-yl)-1H-pyrazole-4-carboxamide] | – | – | 10 | 0.059
4 | CN(C)C(=O)c1ccc(-n2cc(C(=O)Nc3cccc(F)c3)c(-c3ccc(S(C)(=O)=O)cc3)n2)cc1 [Compound 286, 1-(4-Dimethylcarbomylphenyl)-3-[4-(methylsulfonyl)phenyl]-N-(3-fluorophenyl)-1H-pyrazole-4-carboxamide] | 0.11 | > 20 | – | –
5 | O=C(c1ccc(O)s1)N1CCN(c2ccc([N+](=O)[O-])c(N3CCCC3)c2)CC1 [Compound 335] | – | – | 2.07 | 0.342

Second part, the molecule after the results:

Row | EC50 [1] [µM] | EC50 [2] [µM] | IC50 [3] [µM] | IC50 [4] [µM] | Molecule
6 | 0.952 | 3.38 | – | – | CC(=O)Oc1ccc(-c2nn(-c3ccccc3)cc2C=O)cc1 [Cmpd 35]
7 | < 0.5 | – | 14.2 | 0.036 | CS(=O)(=O)c1ccc(-c2nn(-c3cccc(Cl)c3)cc2C(=O)Nc2ccccc2O)cc1 [Compound 240, N-(2-Hydroxyphenyl)-3-[4-(methylsulfonyl)phenyl]-1-(3-chlorophenyl)-1H-pyrazole-4-carboxamide]
8 | < 0.5 | – | 6.32 | 0.045 | CS(=O)(=O)c1ccc(-c2nn(-c3ccc(F)cc3)cc2C(=O)Nc2ccccc2O)cc1 [Compound 242, N-(2-Hydroxyphenyl)-3-[4-(methylsulfonyl)phenyl]-1-(4-fluorophenyl)-1H-pyrazole-4-carboxamide]
9 | – | – | 91.7 | 0.346 | CS(=O)(=O)c1ccc(-c2nn(-c3cccc(C#N)c3)cc2C(=O)Nc2cccc(C(F)(F)F)c2)cc1 [Compound 270, 1-(3-Cyanophenyl)-N-(3-trifluoromethylphenyl)-3-[4-(methylsulfonyl)phenyl]-1H-pyrazole-4-carboxamide]
10 | 0.4 | 18.4 | – | – | CS(=O)(=O)c1ccc(-c2nn(-c3ccc(C(N)=O)cc3)cc2C(=O)Nc2cccc(F)c2)cc1 [Compound 283, 1-(4-Carbomylphenyl)-3-[4-(methylsulfonyl)phenyl]-N-(3-fluorophenyl)-1H-pyrazole-4-carboxamide]
11 | 0.04 | 1.93 | – | – | CS(=O)(=O)c1ccc(-c2nn(-c3ccc(C(=O)NO)cc3)cc2C(=O)Nc2cccc(F)c2)cc1 [Compound 284, 1-(4-Hydroxycarbomylphenyl)-3-[4-(methylsulfonyl)phenyl]-N-(3-fluorophenyl)-1H-pyrazole-4-carboxamide]
12 | 0.25 | 0.81 | – | – | CNC(=O)c1ccc(-n2cc(C(=O)Nc3cccc(F)c3)c(-c3ccc(S(C)(=O)=O)cc3)n2)cc1 [Compound 285, 1-(4-Methylcarbomylphenyl)-3-[4-(methylsulfonyl)phenyl]-N-(3-fluorophenyl)-1H-pyrazole-4-carboxamide]
13 | – | – | 5.22 | 0.142 | O=C(c1sccc1Cl)N1CCN(c2ccc([N+](=O)[O-])c(N3CCCC3)c2)CC1 [Compound 324, {4-[4-Nitro-3-(pyrrolidin-1-yl)phenyl]piperazin-1-yl}(3-chlorothiophen-2-yl)methanone]
